No end group written: not given here.
Target: T1, endogenous EMMPRIN (Mus musculus, UniProt P18572)
T1 sequence (P18572 22-273 isoform P18572-2 limits assumed): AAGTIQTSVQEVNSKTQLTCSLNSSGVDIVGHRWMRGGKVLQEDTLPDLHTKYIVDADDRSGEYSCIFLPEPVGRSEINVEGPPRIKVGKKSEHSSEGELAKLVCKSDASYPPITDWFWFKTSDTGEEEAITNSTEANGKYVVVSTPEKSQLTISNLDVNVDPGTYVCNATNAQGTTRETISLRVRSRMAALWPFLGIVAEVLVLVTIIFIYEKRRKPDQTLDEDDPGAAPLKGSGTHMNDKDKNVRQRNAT
Assay: Affinity measurements: fluorescence binding to adherent HL1 cells

For YKLPGHHHHYRP [AP-9], the Kd was 8 ± 0.6 nM.

— paper PMC4775864 (Theranostics, 2016)
